Experimental data published in PubChem BioAssay (NCI).
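Step 1: Grow cells in 96-well plates. Step 2: Expose to compound for 48 hours at 5 concentrations. Step 3: Interpolate endpoints linearly; if unreached, use highest concentration. TGI is the concentration that stops growth completely.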

Key:
Assay in all cases: NCI tumour cell line growth inhibition, 48 h
COLO 205 colon = system: COLO 205 colon
HOP-62 NSCLC = system: HOP-62 NSCLC
SK-MEL-5 melanoma = system: SK-MEL-5 melanoma
NCI-H460 lung = system: NCI-H460 lung
OVCAR-5 ovarian = system: OVCAR-5 ovarian
MCF7 breast = system: MCF7 breast
T-47D breast = system: T-47D breast
K-562 leukemia = system: K-562 leukemia
HT29 colon = system: HT29 colon
DU-145 prostate = system: DU-145 prostate
HL-60(TB) leukemia = system: HL-60(TB) leukemia
RXF 393 renal = system: RXF 393 renal
LOX IMVI melanoma = system: LOX IMVI melanoma
U251 CNS = system: U251 CNS
SK-OV-3 ovarian = system: SK-OV-3 ovarian
SR leukemia = system: SR leukemia
UO-31 renal = system: UO-31 renal
KM12 colon = system: KM12 colon
SN12C renal = system: SN12C renal
HS 578T breast = system: HS 578T breast
NCI-H226 lung = system: NCI-H226 lung
ACHN renal = system: ACHN renal
MDA-MB-435 = system: MDA-MB-435
RPMI-8226 leukemia = system: RPMI-8226 leukemia
UACC-257 melanoma = system: UACC-257 melanoma
SNB-19 CNS = system: SNB-19 CNS
SF-539 CNS = system: SF-539 CNS
SK-MEL-28 melanoma = system: SK-MEL-28 melanoma
A498 renal = system: A498 renal
MOLT-4 leukemia = system: MOLT-4 leukemia
M14 melanoma = system: M14 melanoma
HOP-92 NSCLC = system: HOP-92 NSCLC
HCT-116 colon = system: HCT-116 colon
MALME-3M melanoma = system: MALME-3M melanoma
EKVX NSCLC = system: EKVX NSCLC
PC-3 prostate = system: PC-3 prostate
NCI-H522 lung = system: NCI-H522 lung
786-0 renal = system: 786-0 renal
OVCAR-4 ovarian = system: OVCAR-4 ovarian
HCC-2998 colon = system: HCC-2998 colon
TK-10 renal = system: TK-10 renal
OVCAR-8 ovarian = system: OVCAR-8 ovarian
MDA-N = system: MDA-N
BT-549 breast = system: BT-549 breast
NCI/ADR-RES ovarian = system: NCI/ADR-RES ovarian
SF-295 CNS = system: SF-295 CNS
SF-268 CNS = system: SF-268 CNS
IGROV1 ovarian = system: IGROV1 ovarian
SK-MEL-2 melanoma = system: SK-MEL-2 melanoma
CCRF-CEM leukemia = system: CCRF-CEM leukemia
HCT-15 colon = system: HCT-15 colon
NCI-H23 lung = system: NCI-H23 lung
MDA-MB-231 breast = system: MDA-MB-231 breast
SW-620 colon = system: SW-620 colon
A549 NSCLC = system: A549 NSCLC
CAKI-1 renal = system: CAKI-1 renal
OVCAR-3 ovarian = system: OVCAR-3 ovarian
UACC-62 melanoma = system: UACC-62 melanoma
SNB-75 CNS = system: SNB-75 CNS

Measured: TGI

CN(C)c1ccc(/C=C/c2nc3ccccc3s2)cc1
not listed: CAKI-1 renal | OVCAR-3 ovarian | UACC-62 melanoma | SNB-75 CNS
> 100 µM: all other assays above

O=C(O)c1cc2ccccc2c(N=Nc2ccc(S(=O)(=O)O)cc2)c1O
not listed: LOX IMVI melanoma | A498 renal | NCI-H23 lung
> 100 µM: all other assays above

COc1ccc(/C=C(\C#N)c2nc3ccccc3c(=O)[nH]2)cc1
90.1 µM: NCI/ADR-RES ovarian
75.1 µM: T-47D breast | IGROV1 ovarian
23.8 µM: SK-OV-3 ovarian
26.1 µM: SF-539 CNS
19.7 µM: MDA-MB-231 breast
28.9 µM: SNB-19 CNS
74.7 µM: SK-MEL-2 melanoma
29.7 µM: BT-549 breast
57.1 µM: SK-MEL-5 melanoma
28.4 µM: OVCAR-8 ovarian
25.2 µM: NCI-H522 lung
72.4 µM: UO-31 renal
32.3 µM: RXF 393 renal
42.3 µM: ACHN renal
70.3 µM: OVCAR-4 ovarian
47.2 µM: SF-268 CNS
24.1 µM: HOP-62 NSCLC
33.9 µM: U251 CNS
52.2 µM: SF-295 CNS
64.6 µM: DU-145 prostate
29.3 µM: HOP-92 NSCLC
34.4 µM: NCI-H460 lung
83.8 µM: TK-10 renal
91.6 µM: HS 578T breast
19 µM: HCT-116 colon
34.7 µM: 786-0 renal
84.3 µM: NCI-H226 lung
80.1 µM: CAKI-1 renal
not listed: A498 renal | NCI-H23 lung | OVCAR-3 ovarian
> 100 µM: all other assays above
